A short description of data set [1]: Solubility in aqueous buffer at pH 5 (HPLC/UV). The data set is classed as physicochemical. The settings on record: acetic acid/KOH buffer pH 5, stirred 24 h at room temperature; for solubility at 24 h: acetic acid/KOH buffer, pH 5, aqueous buffer, thermodynamic from solid. The procedure: Solubility of Compounds was determined in aqueous medium using the following procedure.
Two mg of Compound was added to 200 μl buffer (acetic acid/KOH) solution at pH 5. Solution was then stirred for 24 h at room temperature and then centrifuged 10 min at 16,000 rpm. Corresponding supernatants were analyzed by HPLC and UV detection. Calculation of a given Compound concentration was performed by reporting area under the experimental slope onto a calibration slope obtained separately using DMSO-solubilised Compound at different concentrations.

A short description of data set [2]: Colour of compounds. It is filed as physicochemical.
The subject of data set [3] is VEGF-induced blood retinal barrier breakdown. In words: Inhibition of vascular leakage in a rabbit model of VEGF-induced blood-retinal barrier breakdown. The data set is classed as in vivo. The conditions noted are these: topical 3% (30 mg/ml) 4 times daily for four days, 48 h after intravitreal VEGF, ocular fluorophotometry. The procedure:
Intravitreal injection of VEGF in the rabbit eye produces massive retinal vascular leakage (Edelman and Lutz, 2003, Invest. Ophthalmol. Vis. Sci. 2003; 44:ARVO e-abstract No. 328). Based on said animal model, we investigated the efficacy of topical administration of compound 7 of the invention in reducing the retinal leakage in a VEGF-induced blood retinal barrier breakdown in the rabbit. During four days, 3% test compound 7 (30 mg/ml, 10% PEG 400, 87% labrafil) or control items without compound of the Invention were administered 4 times daily by topical administration (50 μl) in the right eye of five rabbits. On day two, animals received a single intravitreal injection of 50 μl (500 ng) recombinant human VEGF 165 (RD systems) into right eye. Forty-seven hours after the VEGF challenge (day four), fluorescein was injected via the marginal ear vein and circulate during one hour. Breakdown of the blood-retinal barrier was evaluated 48 h after VEGF challenge by measuring fluorescein contents into the vitreoretinal compartment using non-invasive scanning ocular fluorophotometry.

Data set [4] deals with Src tyrosine kinase. The settings on record: in vivo; cited from earlier work.
Data set [5] deals with VEGF-induced blood retinal barrier breakdown. In words: Inhibition of vascular leakage in a rat model of VEGF-induced blood-retinal barrier breakdown. The data set is classed as in vivo. The settings on record: topical 0.51% (5.1 mg/ml) six times over 27 h after intravitreal VEGF, Evans blue. As for the experimental part:
We investigated the efficacy of topical administration of compound II of the invention in reducing the retinal leakage in a VEGF-induced blood retinal barrier breakdown in the rat.
Rats were treated by a single intravitreal injection of 5 μl (100 ng) recombinant human VEGF164 (RD Systems) into each eye.
During twenty-seven hours following VEGF injection, 0.51% test compound II of the Invention (5.1 mg/ml buffer pH 5 with 30% cyclodextrin) and control without compound of the Invention were administered six times by topical administration (10 μl) in eyes of sixteen rats.
Twenty-seven hours later after the VEGF challenge, Evans blue dye (45 mg/kg) was injected intravenously and the dye was allowed to circulate during two hours.
Then, each rat was infused with 0.05M citrate buffer pH 3.5 (37° C.) for 2 minutes to allow clearance of the dye. Immediately after said perfusion, both eyes were enucleated and Evans blue dye was extracted by incubating each retina in formamide (Qaum et al Invest. Ophthalmol. Vis. Sci. 2001, Vol 42, No 10). Afterward, the absorbance was measured with a spectrophotometer at 620 nm.
Breakdown of blood-retinal barrier was proportional to the concentration of Evans blue in the retina normalized by Evans blue concentrations in the plasma.

Structures are written as SMILES. In brackets after ≈: the same amount, converted by molar mass. Read-outs that look alike come from different tables or passages of the source.

In the case of `Cc1cccc(C)c1-c1ccc2nc(Nc3ccc(OCCN4CCCC4)cc3)ncc2c1` [6 Chlorhydrate, [6-(2,6-Dimethyl-phenyl)-quinazolin-2-yl]-[4-(2-pyrrolidin-1-yl-ethoxy)-phenyl]-amine], in data set [1], the “Solubility (pH 5) in %” value is 0.09% and the solubility (commonly how much of the substance goes into solution per volume) at 24 h was 900 µg/mL. Besides, the Colour entry in data set [2] is “Pale yellow”.

Turning to `Cl.Oc1ccc(Cl)c(-c2ccc3nc(Nc4ccc(OCCN5CCCC5)cc4)ncc3c2)c1` [compound 7, 4-Chloro-3-{2-[4-(2-pyrrolidin-1-yl-ethoxy)-phenylamino]-quinazolin-6-yl}-phenol; hydrochloride], in data set [1], the “Solubility (pH 5) in %” value is on record as 0.19% and the solubility at 24 h turned out to be 1900 µg/mL. Besides, in data set [2], the Colour result was “Pale yellow”. Also, the “reduction of vascular leakage compared to control” value in data set [3] worked out at 41%.

In the case of `Cc1ccc(-c2nn(C(C)(C)C)c3ncnc(N)c23)cc1` [PP1], in data set [4], the “breakdown of the brain-blood barrier (BBB)” value is given as “decrease breakdown of the brain-blood barrier (BBB)”, the “expression of VEGF” value is listed as “reduce expression of VEGF” and the oedema entry is “decrease oedema”.

For `Cc1cccc(C)c1-c1ccc2nc(Nc3ccc(OCCN4CCC[C@@H]4C(=O)O)cc3)ncc2c1` [8 Chlorhydrate, (R)-1-(2-{4-[6-(2,6-Dimethyl-phenyl)-quinazolin-2-ylamino]-phenoxy}-ethyl)-pyrrolidine-2-carboxylic acid], in data set [1], the “Solubility (pH 5) in %” value was determined as 1% and the “Solubility (pH 5) in mg/ml” value was 10 mg/ml. In addition, the Colour result in data set [2] is “Pale yellow”.

On to `Cc1cccc(C)c1-c1ccc2nc(Nc3ccc(N4CCN(CCN5CCCC5)C4=O)cc3)ncc2c1` [9 Chlorhydrate, 1-{4-[6-(2,6-Dimethyl-phenyl)-quinazolin-2-ylamino]-phenyl}-3-(2-pyrrolidin-1-yl-ethyl)-imidazolidin-2-one], for which, in data set [1], the “Solubility (pH 5) in %” value is recorded as 0.35% and the solubility at 24 h came out at 3500 µg/mL. The Colour result in data set [2] is “Pale yellow”.

For the compound `Oc1ccc(Cl)c(-c2ccc3nc(Nc4ccc(OCCN5CCCCCC5)cc4)ncc3c2)c1` [compound 16, 3-{2-[4-(2-Azepan-1-yl-ethoxy)-phenylamino]-quinazolin-6-yl}-4-chloro-phenol], in data set [1], the “Solubility (pH 5) in %” value amounted to 0.05% and the solubility at 24 h came to 500 µg/mL (≈ 1020 µM). Further, the Colour result in data set [2] is “Pale yellow”.

Turning to `Cc1cccc(C)c1-c1ccc2nc(Nc3ccc(OCCN4CCC[C@@H]4C(=O)O)cc3)ncc2c1` [compound 8, (R)-1-(2-{4-[6-(2,6-Dimethyl-phenyl)-quinazolin-2-ylamino]-phenoxy}-ethyl)-pyrrolidine-2-carboxylic acid], in data set [1] (listed as 8 base form), the “Solubility (pH 5) in %” value is listed as 0.04% and the “Solubility (pH 5) in mg/ml” value is reported as 0.4 mg/ml. In addition, the Colour result in data set [2] (listed as 8 base form) is on record as “Orange”.

On to `Cc1cc(-c2cc(O)ccc2Cl)cc2cnc(Nc3ccc(OCCN4CCCC4)cc3)nc12.Cl` [Compound 18, 1-(2-{4-[6-(2-Chloro-5-hydroxy-phenyl)-8-methyl-quinazolin-2-ylamino]-phenoxy}-ethyl)-pyrrolidinium; chloride], for which, in data set [1], the “Solubility (pH 5) in %” value worked out at 0.67% and the solubility at 24 h is 6700 µg/mL. The Colour entry in data set [2] is on record as “Pale yellow”.

Consider `Cc1cccc(C)c1-c1ccc2nc(Nc3ccc(N4CCN(C(=O)c5ccncc5)CC4)cc3)ncc2c1` [compound 11, (4-{4-[6-(2,6-Dimethyl-phenyl)-quinazolin-2-ylamino]-phenyl}-piperazin-1-yl)-pyridin-4-yl-methanone], for which, in data set [5], the “reduction of vascular leakage compared to control” value was 56%.

As to `Oc1ccc(Cl)c(-c2ccc3nc(Nc4ccc(OCCN5CCCC5)cc4)ncc3c2)c1` [7 base form, 4-Chloro-3-{2-[4-(2-pyrrolidin-1-yl-ethoxy)-phenylamino]-quinazolin-6-yl}-phenol], in data set [1], the “Solubility (pH 5) in %” value came out at 0.03% and the concentration in solution (solubility at 24 h) came to 340 µg/mL (≈ 738 µM). The Colour result in data set [2] is given as “Yellow”.

As to `CN(C)[C@@H]1CCN(C(=O)COc2ccc(Nc3ncc4cc(-c5cc(O)ccc5Cl)ccc4n3)cc2)C1` [13 base form], in data set [1], the “Solubility (pH 5) in %” value was 0.03% and the “Solubility (pH 5) in mg/ml” value amounted to 0.29 mg/ml. The Colour result in data set [2] is on record as “Pale green”.

Consider `O=C1N(CCN2CCCC2)CCN1c1ccc(Nc2ncc3cc(-c4cc(O)ccc4Cl)ccc3n2)cc1` [12 Chlorhydrate, 1-{4-[6-(2-Chloro-5-hydroxy-phenyl)-quinazolin-2-ylamino]-phenyl}-3-(2-pyrrolidin-1-yl-ethyl)-imidazolidin-2-one], for which, in data set [1], the “Solubility (pH 5) in %” value was determined as 0.45% and the solubility at 24 h turned out to be 4500 µg/mL. Also, in data set [2], the Colour result is given as “Pale yellow”.

With `Cc1cccc(C)c1-c1ccc2nc(Nc3ccc(OCC(=O)N4CC[C@@H](N(C)C)C4)cc3)ncc2c1` [compound 14, 1-((R)-3-Dimethylamino-pyrrolidin-1-yl)-2-{4-[6-(2,6-dimethyl-phenyl)-quinazolin-2-ylamino]-phenoxy}-ethanone], in data set [1], the “Solubility (pH 5) in %” value is given as 0.01% and the concentration in solution (solubility at 24 h) came to 140 µg/mL (≈ 282 µM). The Colour result in data set [2] is reported as “Pale yellow”.

In the case of `Cc1cccc(C)c1-c1ccc2nc(Nc3ccc(N4CCNCC4)cc3)ncc2c1` [compound 17, [6-(2,6-Dimethyl-phenyl)-quinazolin-2-yl]-(4-piperazin-1-yl-phenyl)-amine], in data set [1], the “Solubility (pH 5) in %” value is reported as 0.63% and the solubility at 24 h amounted to 6300 µg/mL (≈ 15400 µM). The Colour entry in data set [2] is on record as “brown”.

These data come from patent US8389530B2, “Substituted quinazoline compounds” (Fovea Pharmaceuticals, priority 2008, dated 2013).
